In patent publication US20240300946A1, “EGFR INHIBITORS” (Blueprint Medicines Corporation, priority 2021, published 2024):

Tests used:
[1] = target: T1, EGFR (L858R T790 M C797S) (Homo sapiens, UniProt P00533, C797S/L858R/T790M); assay: Biochemical EGFR inhibition assay (Caliper mobility shift), LRTMCS mutant at 1 mM ATP; conditions: read-out: LRTMCS (PH) IC50 (nM) @ 1 mM ATP (Num)
T1 construct: purchased SignalChem E10-122VG
Procedure: Inhibitory effects of the compounds of the disclosure were measured in biochemical assays that measure the phosphorylation activity of EGFR enzyme phosphorylates 2.5 micromolar 5-FAM-[…]-CONH2 peptide substrate (FL-Peptide 22, PerkinElmer, 760366) in the presence of adenosine-5′-triphosphate (ATP) and varying concentrations of the test compound in 100 mM 2-[4-(2-hydroxyethyl)piperazin-1-yl]ethanesulfonic acid (HEPES), pH 7.5, 10 mM MgCl2, 0.015% Brij-35, 1 mM dithiothreitol (DTT), 1.0% dimethylsulfoxide (DMSO). Assays were performed at 1.0 mM ATP or at ATP Km of the EGFR enzymes. Reactions proceeded until between 10% to 20% total peptides were phosphorylated at room temperature (25° C.) and were terminated with 35 mM 2,2′,2″,2′″-(ethane-1,2-diyldinitrilo)tetraacetic acid (EDTA). Product was detected using the Caliper mobility shift detection method where the phosphorylated peptide (product) and substrate were electrophoretically separated and measured. Percent activity was plotted against log concentration of compound and points to generate an apparent IC50. The following enzyme forms of EGFR were examples that were used in these assays: • EGFR WT (SignalChem, E10-112G) • EGFR (L858R T790 M C797S) (SignalChem, E10-122VG) • EGFR (d746-750) T790 M C797S (SignalChem, E10-122UG) • EGFR L858R (SignalChem, E10-122BG) • EGFR (d746-750) (SignalChem, E10-122JG)

[2] = system: phosphorylation of EGFR in NCI-H1975 cell line that harbors the EGFR L858R T790 M mutations; assay: NCI-H1975 pEGFR AlphaLISA assay; format: cell-based; conditions: Homo sapiens, NCI-H1975, NCI-H1975 cells, p-EGFR (Tyr1068), 4-5 hours incubation; read-out: Ext pEGFR H1975 GMean IC50 (nM) Protocol: @ Pharmaron AlphaLISA (Num)
Procedure: Inhibitory effects of the compounds of the disclosure were evaluated in cellular assays that measure level of intracellular phosphorylation of EGFR in NCI-H1975 cell line that harbors the EGFR L858R T790 M mutations (ATCC, CRL-5908) using AlphaLISA sureFire ultra p-EGFR (Tyr1068) assay kit (PerkinElmer, ALSU-PEGFR-A50K). The NCI-H1975 cells were seeded at 12.5K/well in 22 μL into 384 well opti plate (PerkinElmer, 6007299) and adhering overnight at 37° C./5% CO2. On the next day, the test compounds and DMSO control were added into H1975 cell plate followed by incubation at 37° C./5% CO2 for 4-5 hours. The cells were then spin down in the 384-well plate and lysed with 10 μL of 1× AlphaLISA lysis buffer followed by shaking at 600 rpm for 10 minutes at room temperature. After that, 5 μL of an acceptor bead mix was added to each well followed by incubation at room temperature for 1.5-2 h in dark. Then 5 μL of a donor bead mix was added to each well followed by overnight incubation at room temperature in dark. On the next day, the plate was read at a compatible plate reader to obtain pEGFR signal. Percent of pEGFR inhibition was plotted against log concentration of compounds to generate IC50 values.

T1 sequence (P00533 25-1210 T790M/C797S/L858R): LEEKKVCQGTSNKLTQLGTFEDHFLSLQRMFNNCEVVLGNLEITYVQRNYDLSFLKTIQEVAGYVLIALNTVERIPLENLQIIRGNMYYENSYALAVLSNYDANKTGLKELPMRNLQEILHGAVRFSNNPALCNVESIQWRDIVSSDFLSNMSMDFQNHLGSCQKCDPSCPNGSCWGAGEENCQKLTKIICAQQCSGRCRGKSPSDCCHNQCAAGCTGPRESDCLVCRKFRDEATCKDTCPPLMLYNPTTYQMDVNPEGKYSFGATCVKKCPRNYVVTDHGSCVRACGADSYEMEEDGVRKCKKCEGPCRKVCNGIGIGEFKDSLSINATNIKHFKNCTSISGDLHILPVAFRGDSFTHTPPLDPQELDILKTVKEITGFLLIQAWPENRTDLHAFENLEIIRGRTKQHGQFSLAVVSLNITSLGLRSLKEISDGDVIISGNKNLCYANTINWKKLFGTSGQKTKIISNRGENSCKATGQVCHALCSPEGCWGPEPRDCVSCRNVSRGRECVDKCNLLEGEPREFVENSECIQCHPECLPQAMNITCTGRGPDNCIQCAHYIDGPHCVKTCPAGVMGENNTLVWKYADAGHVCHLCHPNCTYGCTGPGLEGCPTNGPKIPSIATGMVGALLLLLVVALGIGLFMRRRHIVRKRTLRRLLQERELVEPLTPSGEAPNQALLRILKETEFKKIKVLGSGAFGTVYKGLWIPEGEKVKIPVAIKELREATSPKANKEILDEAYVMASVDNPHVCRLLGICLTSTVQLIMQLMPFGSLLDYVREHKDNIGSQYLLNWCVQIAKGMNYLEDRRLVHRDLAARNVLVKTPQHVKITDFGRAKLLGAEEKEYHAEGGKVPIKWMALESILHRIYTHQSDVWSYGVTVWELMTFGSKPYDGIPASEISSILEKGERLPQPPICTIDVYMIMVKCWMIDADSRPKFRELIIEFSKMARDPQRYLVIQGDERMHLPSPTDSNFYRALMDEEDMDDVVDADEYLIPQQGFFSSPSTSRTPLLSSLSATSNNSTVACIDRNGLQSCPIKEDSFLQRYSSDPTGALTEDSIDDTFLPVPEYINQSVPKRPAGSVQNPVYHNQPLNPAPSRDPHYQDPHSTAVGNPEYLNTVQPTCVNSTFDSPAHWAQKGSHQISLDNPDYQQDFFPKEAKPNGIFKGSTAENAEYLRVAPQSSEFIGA

SMILES	IC50 [1] [nM]	IC50 [2] [nM]
Cc1ncc(-c2nccc(Nc3cc4c(C(C)C)ncc(N5CC(CS(C)(=O)=O)C5)c4cn3)n2)s1 [Example 8, 5-isopropyl-8-(3-((methylsulfonyl)methyl)azetidin-1-yl)-N-(2-(2-methylthiazol-5-yl)pyrimidin-4-yl)-2,6-naphthyridin-3-amine]	≤ 15	< 10
COc1ccc(-c2nccc(Nc3cc4c(C(C)C)ccc(N5CC(CS(C)(=O)=O)C5)c4cn3)n2)cn1 [Example 11, 5-isopropyl-N-(2-(6-methoxypyridin-3-yl)pyrimidin-4-yl)-8-(3-((methylsulfonyl)methyl)azetidin-1-yl)isoquinolin-3-amine]	30 to 100	> 50
CCS(=O)(=O)CC1CN(c2ccc(C(C)C)c3cc(Nc4ccnc(-c5cnn(C)c5)n4)ncc23)C1 [Example 12, 8-(3-((ethylsulfonyl)methyl)azetidin-1-yl)-5-isopropyl-N-(2-(1-methyl-1H-pyrazol-4-yl)pyrimidin-4-yl)isoquinolin-3-amine]	≤ 15	10 to 20
CC(C)c1ccc(N2CC(CS(C)(=O)=O)C2)c2cnc(Nc3ccnc(-c4cccnc4)n3)cc12 [Example 13, 5-isopropyl-8-(3-((methylsulfonyl)methyl)azetidin-1-yl)-N-(2-(pyridin-3-yl)pyrimidin-4-yl)isoquinolin-3-amine]	≤ 15	10 to 20
CC(C)c1ccc(N2CC(CS(C)(=O)=O)C2)c2cnc(Nc3ccnc(-c4cncc(Cl)c4)n3)cc12 [Example 14, N-(2-(5-chloropyridin-3-yl)pyrimidin-4-yl)-5-isopropyl-8-(3-((methylsulfonyl)methyl)azetidin-1-yl)isoquinolin-3-amine]	30 to 100	> 50
CC(C)c1ccc(N2CC(CS(C)(=O)=O)C2)c2cnc(Nc3ccnc(C4=CCC5(CC4)OCCO5)n3)cc12 [Example 15, N-(2-(1,4-dioxaspiro[4.5]dec-7-en-8-yl)pyrimidin-4-yl)-5-isopropyl-8-(3-((methylsulfonyl)methyl)azetidin-1-yl)isoquinolin-3-amine]	15 to 20	30 to 50

Results, then the compound that gave them:

IC50 [1] [nM]	IC50 [2] [nM]	SMILES
30 to 100	> 50	CC(C)c1cnc(N2CC(CS(C)(=O)=O)C2)c2cnc(Nc3ccnc(C4CCC4)n3)cc12 [Example 5, N-(2-cyclobutylpyrimidin-4-yl)-5-isopropyl-8-(3-((methylsulfonyl)methyl)azetidin-1-yl)-2,7-naphthyridin-3-amine]
30 to 100	> 50	CC(C)c1cnc(N2CC(CS(C)(=O)=O)C2)c2cnc(Nc3ccnc([C@H]4C[C@@H](O)C4)n3)cc12 [Example 6, (1s,3s)-3-(4-((5-isopropyl-8-(3-((methylsulfonyl)methyl)azetidin-1-yl)-2,7-naphthyridin-3-yl)amino)pyrimidin-2-yl)cyclobutan-1-ol]
15 to 20	> 50	CC(C)c1cnc(N2CC(CS(C)(=O)=O)C2)c2cnc(Nc3ccnc([C@H]4C[C@H](O)C4)n3)cc12 [Example 7, (1r,3r)-3-(4-((5-isopropyl-8-(3-((methylsulfonyl)methyl)azetidin-1-yl)-2,7-naphthyridin-3-yl)amino)pyrimidin-2-yl)cyclobutan-1-ol]
≤ 15	30 to 50	CC(C)c1ncc(N2CC(CS(C)(=O)=O)C2)c2cnc(Nc3ccnc(-c4cnn(C)c4)n3)cc12 [Example 9, 5-isopropyl-N-(2-(1-methyl-1H-pyrazol-4-yl)pyrimidin-4-yl)-8-(3-((methylsulfonyl)methyl)azetidin-1-yl)-2,6-naphthyridin-3-amine]
≤ 15	10 to 20	CC(C)c1ccc(N2CC(CS(C)(=O)=O)C2)c2cnc(Nc3ccnc(-c4cnn(C)c4)n3)cc12 [Example 10, 5-isopropyl-N-(2-(1-methyl-1H-pyrazol-4-yl)pyrimidin-4-yl)-8-(3-((methylsulfonyl)methyl)azetidin-1-yl)isoquinolin-3-amine]
30 to 100	> 50	CC(C)c1ccc(N2CC(CS(C)(=O)=O)C2)c2cnc(Nc3ccnc(C4CC(F)C4)n3)cc12 (stereo not drawn) [Example 26, N′-(2-(3-fluorocyclobutyl)pyrimidin-4-yl)-5-isopropyl-8-(3-((methylsulfonyl)methyl)azetidin-1-yl)isoquinolin-3-amine]
